Laboratory results taken from patent publication US20250230138A1, “COMPOUNDS HAVING A T-STRUCTURE FORMED BY AT LEAST FOUR CYCLES FOR USE IN THE TREATMENT OF CANCER AND OTHER INDICATIONS” (TheRas, Inc., priority 2022, published 2025).
Where two headings read alike, the source gives them in different places.

What was measured:
[1] = target: Cys242 in human PIK3CA (157-299) (Homo sapiens (Human), UniProt P42336); test: Covalent modification assay using MALDI-TOF MS; format: biochemical; conditions: 4 h reaction time point; 1 μM protein target, 1:5 protein to compound ratio (compounds 853-1279)
Cys242 in human PIK3CA (157-299), sequence (P42336 157-299): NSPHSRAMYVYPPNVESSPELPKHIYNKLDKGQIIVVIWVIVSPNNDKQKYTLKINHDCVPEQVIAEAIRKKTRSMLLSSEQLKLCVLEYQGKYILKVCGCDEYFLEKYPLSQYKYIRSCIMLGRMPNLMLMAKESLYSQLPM
In short: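 PIK3CA (157-299) at 3.33 μM or 1 μM in 20 mM HEPES, 150 mM NaCl, 2 mM MgCl2, pH 7.3 was incubated with compound (from 10 mM DMSO stocks) in the dark at room temperature for 15 min, 30 min, 2 h or 4 h. Linear-mode MALDI-TOF peak heights gave percent modification.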

[2] = test system: pAKT in BT474 cells; test: Cell-based pAKT HTRF assay in BT474 cells; conditions: BT474 cells, 4 hr incubation, Compounds 1000-1279, read-out: pAKT inhibition IC50 in BT474 cells
In short: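 9-pt curve, top 3 μM, 3-fold steps, 0.25% DMSO; 4 hr compound exposure. Lysis, then HTRF with d2/Eu Cryptate antibody pair, 4–24 h RT. Ex 320 nm, Em 615 nm.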

| IC50 [2] | IC50 ([2]; Homo sapiens, BT-474) | Compound | % of modification [1] |
| --- | --- | --- | --- |
| < 100 nM |  | C=CC(=O)N1CCn2nc(-c3nc(-c4ccc(OCCN(C)C)nc4)c4ccsc4c3-c3c(F)cc(F)cc3OCCOC)cc2C1C (stereo not shown) [Compound 1065] | A (percent of modification of PIK3CA protein ≥75%) |
| 100 to 1000 nM |  | C=CC(=O)N1CCc2ccc(-c3nc(-c4ccc5c(c4)CNC(=O)C5)c4ccsc4c3-c3c(F)cc(F)cc3OCCOC)cc2C1 [Compound 1066] | D (percent of modification <25%) |
| > 1000 nM |  | C=CC(=O)N1CCc2ccc(-c3nc(-c4ccc5c(c4)C(=O)NC5)c4ccsc4c3-c3c(F)cc(F)cc3OCCOC)cc2C1 [Compound 1067] | D (percent of modification <25%) |
| > 1000 nM |  | C=CC(=O)N1CCc2ccc(-c3nc(-c4cnc(N(C)C)nc4)c4ccsc4c3-c3c(F)cc(F)cc3OCCOC)cc2C1 [Compound 1068] | D (percent of modification <25%) |
| > 1000 nM |  | C=CC(=O)N1CCc2ccc(-c3nc(-c4cnc(N5CCN(C)CC5)nc4)c4ccsc4c3-c3c(F)cc(F)cc3OCCOC)cc2C1 [Compound 1069] | D (percent of modification <25%) |
| < 100 nM |  | C=CC(=O)N1CCc2nc(-c3nc(-c4ccc5c(c4)CNC(=O)C5)c4ccsc4c3-c3c(F)cc(F)cc3OCCOC)sc2C1 [Compound 1070] | A (percent of modification of PIK3CA protein ≥75%) |
|  | < 100 nM | C=CC(=O)N1Cc2cc(-c3nc(C45CC(C(=O)NC)(C4)C5)c4ccsc4c3-c3c(F)cc(F)cc3OCCOC)nn2C[C@H]1C [Compound 1071, 3-((S)-6-((R)-5-acryloyl-6-methyl-4,5,6,7-tetrahydropyrazolo[1,5-a]pyrazin-2-yl)-7-(2,4-difluoro-6-(2-methoxyethoxy)phenyl)thieno[3,2-c]pyridin-4-yl)-N-methylbicyclo[1.1.1]pentane-1-carboxamide] | B (50%<percent of modification <75%) |
| < 100 nM |  | C=CC(=O)N1CCn2nc(-c3nc(-c4cc5c(cc4OC)C(=O)NC5)c4ccsc4c3-c3c(F)cc(F)cc3OCCO)cc2C1C (stereo not shown) [Compound 1072] | A (percent of modification of PIK3CA protein ≥75%) |
| < 100 nM |  | C=CC(=O)N1CCn2nc(-c3nc(-c4ccc(OCCN5CCC5)cc4)c4ccsc4c3-c3c(F)cc(F)cc3OCCOC)cc2C1C (stereo not shown) [Compound 1073] | A (percent of modification of PIK3CA protein ≥75%) |
| < 100 nM |  | C=CC(=O)N1CCn2nc(-c3nc(-c4ccn5cncc5c4)c4ccsc4c3-c3c(F)cc(F)cc3OCCOC)cc2C1C (stereo not shown) [Compound 1074] | A (percent of modification of PIK3CA protein ≥75%) |
| < 100 nM |  | C=CC(=O)N1CCn2nc(-c3nc(-c4ccc5c(C)n(C)nc5c4)c4ccsc4c3-c3c(F)cc(F)cc3OCCO)cc2C1C (stereo not shown) [Compound 1076] | A (percent of modification of PIK3CA protein ≥75%) |
| < 100 nM |  | C=CC(=O)N1CCn2nc(-c3nc(-c4ccc(OCCN(C)C)c(F)c4)c4ccsc4c3-c3c(F)cc(F)cc3OCCOC)cc2C1C (stereo not shown) [Compound 1077] | A (percent of modification of PIK3CA protein ≥75%) |
| < 100 nM |  | C=CC(=O)N1CCn2nc(-c3nc(-c4ccc(OCC5CN(C)C5)cc4)c4ccsc4c3-c3c(F)cc(F)cc3OCCOC)cc2C1C (stereo not shown) [Compound 1078] | A (percent of modification of PIK3CA protein ≥75%) |
| < 100 nM |  | C=CC(=O)N1CCn2nc(-c3nc(-c4ccc5c(c4)CNC(=O)C5(C)C)c4ccsc4c3-c3c(F)cc(F)cc3OCCOC)cc2C1C (stereo not shown) [Compound 1079] | A (percent of modification of PIK3CA protein ≥75%) |
| < 100 nM |  | C=CC(=O)N1CCn2nc(-c3nc(-c4ccn(C5CN(C)C5)c(=O)c4)c4ccsc4c3-c3c(F)cc(F)cc3OCCOC)cc2C1C (stereo not shown) [Compound 1080] | A (percent of modification of PIK3CA protein ≥75%) |
| < 100 nM |  | C=CC(=O)N1CCn2nc(-c3nc(-c4cnc5c(c4)CN(CC(F)F)CC5)c4ccsc4c3-c3c(F)cc(F)cc3OCCOC)cc2C1C (stereo not shown) [Compound 1081] | A (percent of modification of PIK3CA protein ≥75%) |
| < 100 nM |  | C=CC(=O)N1CCn2nc(-c3nc(-c4ccc(N5CCN(C)CC5)cc4)c4ccsc4c3-c3c(F)cc(F)cc3OCCOC)cc2C1C (stereo not shown) [Compound 1082] | A (percent of modification of PIK3CA protein ≥75%) |
| < 100 nM |  | C=CC(=O)N1CCn2nc(-c3nc(-c4ccc5c(c4)CNC(=O)C54CC4)c4ccsc4c3-c3c(F)cc(F)cc3OCCOC)cc2C1C (stereo not shown) [Compound 1083] | A (percent of modification of PIK3CA protein ≥75%) |
| < 100 nM |  | C=CC(=O)N1CCn2nc(-c3nc(-c4cccc(CCN(C)C)c4)c4ccsc4c3-c3c(F)cc(F)cc3OCCOC)cc2C1C (stereo not shown) [Compound 1084] | A (percent of modification of PIK3CA protein ≥75%) |

| IC50 [2] | IC50 ([2]; Homo sapiens, BT-474) | Compound | % of modification [1] |
| --- | --- | --- | --- |
| < 100 nM |  | C=CC(=O)N1CCc2ncc(-c3nc(-c4ccc5c(c4)CCN(C)CC5)c4ccsc4c3-c3c(F)cc(F)cc3OCCOC)cc2C1 [Compound 1085] | A (percent of modification of PIK3CA protein ≥75%) |
| 100 to 1000 nM |  | C=CC(=O)N1CCn2nc(-c3nc(N4CC5(CCNC(=O)C5)C4)c4ccsc4c3-c3c(F)cc(F)cc3OCCOC)cc2C1C (stereo not shown) [Compound 1088] | B (50%<percent of modification <75%) |
| < 100 nM |  | C=CC(=O)N1CCn2nc(-c3nc(-c4ccc(N5CCN(C)CC5)cc4)c4ccsc4c3-c3c(F)cc(F)cc3OCCO)cc2C1C (stereo not shown) [Compound 1089] | A (percent of modification of PIK3CA protein ≥75%) |
| < 100 nM |  | C=CC(=O)N1CCn2nc(-c3nc(-c4ccc(CC(=O)N(C)C)cc4)c4ccsc4c3-c3c(F)cc(F)cc3OCCOC)cc2C1C (stereo not shown) [Compound 1090] | A (percent of modification of PIK3CA protein ≥75%) |
| < 100 nM |  | C=CC(=O)N1CCn2nc(-c3nc(-c4ccc(OCCN(C)C)cc4F)c4ccsc4c3-c3c(F)cc(F)cc3OCCOC)cc2C1C (stereo not shown) [Compound 1091] | A (percent of modification of PIK3CA protein ≥75%) |
| < 100 nM |  | C=CC(=O)N1CCn2nc(-c3nc(-c4ccc5c(c4)[nH]c(=O)n5C)c4ccsc4c3-c3c(F)cc(F)cc3OCCOC)cc2C1C (stereo not shown) [Compound 1092] | A (percent of modification of PIK3CA protein ≥75%) |
| < 100 nM |  | C=CC(=O)N1CCn2nc(-c3nc(-c4cnc5c(c4)CN(C(C)C)CC5)c4ccsc4c3-c3c(F)cc(F)cc3OCCOC)cc2C1C (stereo not shown) [Compound 1093] | A (percent of modification of PIK3CA protein ≥75%) |
| < 100 nM |  | C=CC(=O)N1CCn2nc(-c3nc(-c4ccc(OC5CN(C)C5)cc4)c4ccsc4c3-c3c(F)cc(F)cc3OCCOC)cc2C1C (stereo not shown) [Compound 1094] | A (percent of modification of PIK3CA protein ≥75%) |
| < 100 nM |  | C=CC(=O)N1CCn2nc(-c3nc(-c4ccc(C(=O)NC5CN(C)C5)cc4)c4ccsc4c3-c3c(F)cc(F)cc3OCCOC)cc2C1C (stereo not shown) [Compound 1095] | A (percent of modification of PIK3CA protein ≥75%) |
| < 100 nM |  | C=CC(=O)N1CCn2nc(-c3nc(-c4ccc(C(=O)N5CCN(C)CC5)cc4)c4ccsc4c3-c3c(F)cc(F)cc3OCCOC)cc2C1C (stereo not shown) [Compound 1096] | A (percent of modification of PIK3CA protein ≥75%) |
| < 100 nM |  | C=CC(=O)N1CCn2nc(-c3nc(-c4cncc(OCCN(C)C)c4)c4ccsc4c3-c3c(F)cc(F)cc3OCCOC)cc2C1C (stereo not shown) [Compound 1099] | A (percent of modification of PIK3CA protein ≥75%) |
| < 100 nM |  | C=CC(=O)N1CCn2nc(-c3nc(-c4ccc(C(=O)N(C)C)cc4)c4ccsc4c3-c3c(F)cc(F)cc3OCCOC)cc2C1C (stereo not shown) [Compound 1100] | A (percent of modification of PIK3CA protein ≥75%) |
| < 100 nM |  | C=CC(=O)N1CCn2nc(-c3nc(-c4ccc5c(c4)c(C)nn5C)c4ccsc4c3-c3c(F)cc(F)cc3OCCO)cc2C1C (stereo not shown) [Compound 1101] | A (percent of modification of PIK3CA protein ≥75%) |
| < 100 nM |  | C=CC(=O)N1CCn2nc(-c3nc(-c4ccc(CC(=O)N5CC(F)(F)C5)cc4)c4ccsc4c3-c3c(F)cc(F)cc3OCCOC)cc2C1C (stereo not shown) [Compound 1102] | A (percent of modification of PIK3CA protein ≥75%) |
| < 100 nM |  | C=CC(=O)N1CCn2nc(-c3nc(-c4ccc(C(=O)NC)cc4)c4ccsc4c3-c3c(F)cc(F)cc3OCCOC)cc2C1C (stereo not shown) [Compound 1103] | A (percent of modification of PIK3CA protein ≥75%) |
| < 100 nM |  | C=CC(=O)N1CCn2nc(-c3nc(-c4ccc5c(c4)CN(C)CC5)c4ccsc4c3-c3c(F)cc(F)cc3OCCOC)cc2C1C (stereo not shown) [Compound 1104] | A (percent of modification of PIK3CA protein ≥75%) |
| < 100 nM |  | C=CC(=O)N1CCn2nc(-c3nc(-c4ccc5c(cnn5CCN(C)C)c4)c4ccsc4c3-c3c(F)cc(F)cc3OCCOC)cc2C1C (stereo not shown) [Compound 1105] | A (percent of modification of PIK3CA protein ≥75%) |
| 100 to 1000 nM |  | C=CC(=O)N1CCc2ccc(-c3nc(-c4cnc(N5CCN(C)CC5)nc4)c4ccsc4c3-c3c(F)cc(F)cc3OCCOC)cc2C1 [Compound 1106] | A (percent of modification of PIK3CA protein ≥75%) |
| < 100 nM |  | C=CC(=O)N1CCc2ccc(-c3nc(-c4ccc5c(c4)C(=O)NC5)c4ccsc4c3-c3c(F)cc(F)cc3OCCOC)cc2C1 [Compound 1107] | A (percent of modification of PIK3CA protein ≥75%) |
